Results on 12 compounds are retold here after ChEMBL document CHEMBL1201862, “PubChem BioAssay data set” (2004).

SMILES strings stand for the structures.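 Each compound was tested at five concentrations against cells in 96-well plates for 48 hours. GI50 is the concentration that inhibits growth by half.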 Activity calls are given as the source filed them. No stated cut-off is given here; in the data, active = GI50 up to about 1.1 µM and inactive = higher.

Assay in all cases: NCI anticancer screen, dose series, 48 h
In test [1] the test system is SK-OV-3.
For test [2], the system named is EKVX.
Test [3] has as its system NCI-H226.
Test [4] concerns SNB-75.
In test [5] the test system is ACHN.
The subject of test [6] is HCC 2998.
Test [7] deals with SK-MEL-2.
For test [8], the system named is NCI-H23.
Test [9] deals with SF-268.
The subject of test [10] is KM12.
In test [11] the test system is A498.
Test [12] deals with SNB-19.
Test [13] has as its system UACC-257.
Test [14] has as its system MDA-MB-435.
Test [15] has as its system 786-0.
Test [16] has as its system HCT-15.
Test [17] relates to CAKI-1.
The test system of test [18] is OVCAR-3.
The test system of test [19] is M14.
The test system of test [20] is BT-549.

In the case of `COc1cc(OC)c(OC)cc1/C=C1\C=Cc2ccccc21`, the GI50 is 19.7 µM (inactive) in test [1]; 19.2 µM (inactive) in test [2]; 26.9 µM (inactive) in test [3]; 2.04 µM (inactive) in test [4]; 27.1 µM (inactive) in test [5]; 13.5 µM (inactive) in test [6]. In addition, the GI50 in test [7] is > 10 µM (inactive); in [8] it was 18.8 µM (inactive); in test [9], 17.1 µM (inactive); in [10] it was 10.3 µM (inactive); in test [11], > 10 µM (inactive); in test [12], > 10 µM (inactive). Moreover, the GI50 in test [13] is 16.3 µM (inactive); in test [14], 5.32 µM (inactive); in test [15] it was 28.1 µM (inactive); in [16] it was 12.4 µM.

Turning to `COc1ccc(/C=C2\C=Cc3ccccc32)cc1OC`, the GI50 is 76.2 µM (inactive) in test [1]; 22.5 µM (inactive) in [2]; 28.4 µM (inactive) in [3]; 20.6 µM (inactive) in [4]; > 100 µM (inactive) in [17]; > 100 µM (inactive) in test [18]. In addition, the GI50 in test [5] was 78.2 µM (inactive); in test [6], > 100 µM (inactive); in [19], > 100 µM (inactive); in test [7], 72.1 µM (inactive); in test [8] it was 24 µM (inactive); in [9], > 100 µM (inactive). Moreover, the GI50 in test [10] is > 100 µM (inactive); in [11], 39.4 µM (inactive); in test [12] it was > 100 µM (inactive); in [13], > 100 µM (inactive); in test [14], > 100 µM (inactive); in [15], 57.5 µM (inactive). In [16], this compound gave a GI50 above 100 µM.

For `NC(=S)N/N=C\CC(O)(C(F)(F)F)C(F)(F)F`, the GI50 in test [1], in test [2], in test [3], in test [4], in [17] and in test [18] was > 10 µM (inactive) in each case. Also, the GI50 in test [5], in [6], in test [19], in [7], in test [8] and in test [9] was > 10 µM (inactive) throughout. In addition, the GI50 in test [10], in [11], in test [12], in test [13], in test [14] and in [15] was > 10 µM (inactive) throughout. Moreover, in test [16], the GI50 is above 10 µM.

Regarding `CCOc1ncn(-c2ccc(NC(=S)NC3OC(CO)C(O)C(O)C3O)cc2)n1` (stereo not given), the GI50 in test [1], in [2], in test [4], in test [18], in test [6] and in test [19] was > 100 µM (inactive) each time. In addition, the GI50 in test [20], in test [8], in test [9], in test [10], in [12] and in [13] was > 100 µM (inactive) each time. Moreover, the figures for the GI50 in test [14], in test [15] and in test [16] were > 100 µM (inactive), > 100 µM (inactive) and above 100 µM, respectively.

Take `C=CC[C@@]1(C#N)C[C@H](C[C@]2(C#N)C[C@H](CCl)OC(C)(C)O2)OC(C)(C)O1`: the GI50 was > 100 µM (inactive) in test [1]; > 100 µM (inactive) in test [2]; 38.4 µM (inactive) in test [3]; 64.4 µM (inactive) in test [4]; > 100 µM (inactive) in test [17]; > 100 µM (inactive) in test [18]. The GI50 in test [5], in test [6], in test [19], in test [7], in test [8] and in [9] was > 100 µM (inactive) each time. Besides, the GI50 in [10] is > 100 µM (inactive); in [11], > 100 µM (inactive); in test [12], > 100 µM (inactive); in [13] it was 94.8 µM (inactive); in [15], > 100 µM (inactive); in test [16], above 100 µM.

On to `C=C1CCC2C(C)(CO)C(O)CCC2(C)C1CC(O)C1=CCOC1=O` (stereo not given), for which the GI50 is 51.5 µM (inactive) in [1]; 96.2 µM (inactive) in test [2]; 45.2 µM (inactive) in [3]; 46.9 µM (inactive) in test [4]; 78 µM (inactive) in test [17]; 26.5 µM (inactive) in test [18]. The GI50 is 60.7 µM (inactive) in [5]; 17.7 µM (inactive) in test [6]; 47.3 µM (inactive) in test [19]; 53.5 µM (inactive) in [7]; > 100 µM (inactive) in [8]; > 100 µM (inactive) in [9]. Moreover, the GI50 in [10] is 36.1 µM (inactive); in [11], > 100 µM (inactive); in test [12] it was > 100 µM (inactive); in test [13] it was > 100 µM (inactive); in test [15], 23.1 µM (inactive); in test [16], 27.4 µM.

Consider `NC1=Nc2ccccc2Sc2nc3ccccc3n21`, for which the GI50 is 17.1 µM (inactive) in test [1]; 10.4 µM (inactive) in test [3]; 15.6 µM (inactive) in [4]; 8.02 µM (inactive) in test [18]; 29.7 µM (inactive) in test [5]; 5.46 µM (inactive) in [19]. Further, the GI50 in [20] is 34.3 µM (inactive); in test [8], 25.5 µM (inactive); in [9], 18.4 µM (inactive); in test [10], 27.2 µM (inactive); in [12], 50.1 µM (inactive); in [13] it was 26.1 µM (inactive). Further, the GI50 in [15] is 2.23 µM (inactive); in test [16] it was 35.5 µM.

With `O=C(CSc1nccc(=O)[nH]1)c1ccccc1`, the GI50 is > 100 µM (inactive) in [1]; > 100 µM (inactive) in [2]; > 100 µM (inactive) in test [4]; > 100 µM (inactive) in test [17]; 40.7 µM (inactive) in test [18]; > 100 µM (inactive) in [5]. In addition, the GI50 in test [19], in test [7], in test [20], in test [8], in test [9] and in test [10] was > 100 µM (inactive) throughout. Moreover, the GI50 is > 100 µM (inactive) in test [12]; > 100 µM (inactive) in [13]; 62.2 µM (inactive) in test [14]; > 100 µM (inactive) in test [15]; above 100 µM in [16].

Consider `NC(=S)N/N=C1/CCCC2CCCC[C@@H]12` (stereo not given in full), for which the GI50 in test [1] is > 100 µM (inactive); in test [2], 35 µM (inactive); in [3], > 100 µM (inactive); in test [4] it was > 100 µM (inactive); in test [17] it was > 100 µM (inactive); in test [18] it was > 100 µM (inactive). The GI50 in [5], in test [6], in test [19], in test [7], in test [8] and in [9] was > 100 µM (inactive) throughout. The GI50 in test [10], in test [11], in test [12], in test [13], in [14] and in [15] was > 100 µM (inactive) in each case. Further, the GI50 in test [16] is above 100 µM.

For `CC(C)N(C(=O)C12C3C4C5C3C1(C(=O)N(C(C)C)C(C)C)C5(C#N)C42)C(C)C` (stereo not given), the GI50 in [1], in test [2], in [3], in test [4], in [17] and in [18] was > 100 µM (inactive) in each case. Moreover, the GI50 in test [5], in test [6], in test [19], in [7], in test [8] and in [9] was > 100 µM (inactive) in each case. Also, the GI50 was > 100 µM (inactive) in test [10]; > 100 µM (inactive) in test [11]; > 100 µM (inactive) in test [12]; > 100 µM (inactive) in test [13]; > 100 µM (inactive) in test [15]; 67.5 µM in test [16].

For `CCCCCCCCCC(O)CC(=O)c1c(O)cccc1O` (stereo not given), the GI50 in test [1] was 20 µM (inactive); in test [2], 21.9 µM (inactive); in test [3], 17.4 µM (inactive); in [4], 18.7 µM (inactive); in test [17], 21.7 µM (inactive); in test [18] it was 21.9 µM (inactive). Further, the GI50 in test [5] was 24.1 µM (inactive); in test [6], 12.4 µM (inactive); in test [19], 20.1 µM (inactive); in test [7], 18.4 µM (inactive); in [8], 22 µM (inactive); in [9], 17.7 µM (inactive). Also, the GI50 in test [10] is 19.3 µM (inactive); in [11], 30.5 µM (inactive); in [12], 29.9 µM (inactive); in test [13], 19.5 µM (inactive); in test [14], 25.9 µM (inactive); in test [15] it was 19.1 µM (inactive). The GI50 in test [16] is 18.2 µM.

As for `COc1cc(C(Cc2ccccc2)NC(C)=O)oc(=O)c1` (stereo not given), the GI50 in test [1] was > 100 µM (inactive); in test [2], > 100 µM (inactive); in test [3] it was > 100 µM (inactive); in test [4], 25 µM (inactive); in test [17], > 100 µM (inactive); in test [18] it was > 100 µM (inactive). Besides, the GI50 in test [5] is > 100 µM (inactive); in [6] it was > 100 µM (inactive); in test [19] it was > 100 µM (inactive); in test [7], > 100 µM (inactive); in test [8], > 100 µM (inactive); in [9] it was 89.1 µM (inactive). Further, the GI50 is > 100 µM (inactive) in [10]; > 100 µM (inactive) in test [11]; > 100 µM (inactive) in test [12]; > 100 µM (inactive) in test [13]; > 100 µM (inactive) in [15]; above 100 µM in test [16].
